# Test results published in patent publication US8221737B2, “Hepatitis C virus inhibitors” (Enanta Pharmaceuticals, Inc., priority 2009, dated 2012).
# System: HCV 1b genotype replicon
# Experiment: HCV replicon assay - qRT-PCR (HCV RNA detection)
# Format: cell-based
# Conditions: Hepatitis C virus, from the qRT-PCR or luciferase assay (not specified which), EC50 range class
# Text: HCV replicon cell lines (kindly provided by R. Bartenschlager) isolated from colonies as described by Lohman et. al. (Lohman et al. (1999) Science 285: 110-113, expressly incorporated by reference in its entirety) and used for all experiments. The HCV replicon has the nucleic acid sequence set forth in EMBL Accession No.: AJ242651, the coding sequence of which is from nucleotides 1801 to 8406.
# The coding sequence of the published HCV replicon was synthesized and subsequently assembled in a modified plasmid pBR322 (Promega, Madison, Wis.) using standard molecular biology techniques. One replicon cell line (“SGR 11-7”) stably expresses HCV replicon RNA which consists of (i) the HCV 5′UTR fused to the first 12 amino acids of the capsid protein, (ii) the neomycin phosphotransferase gene (neo), (iii) the IRES from encephalomyocarditis virus (EMCV), and (iv) HCV NS2 to NS5B genes and the HCV 3′UTR. Another replicon cell line (“Huh-luc/neo-ET”) described by Vrolijk et. al. (Vrolijk et. al. (2003) Journal of Virological Methods 110:201-209, expressly incorporated by reference in its entirety) stably expresses HCV replicon RNA which consists of (i) the HCV 5′UTR fused to the first 12 amino acids of the capsid protein, (ii) the firefly luciferase reporter gene, (iii) the ubiquitin gene, (iv) the neomycin phosphotransferase gene (neo), (v) the IRES from encephalomyocarditis virus (EMCV), and (vi) HCV NS3 to NS5B genes that harbor cell culture adaptive mutations (E1202G, T12801, K1846T) and the HCV 3′UTR.
# These cell lines were maintained at 37° C., 5% CO2, 100% relative humidity in DMEM (Cat#11965-084, Invitrogen), with 10% fetal calf serum (“FCS”, Invitrogen), 1% non-essential amino acids (Invitrogen), 1% of Glutamax (Invitrogen), 1% of 1 OOX penicillin/streptomycin (Cat#15140-122, Invitrogen) and Geneticin (Cat#10131-027, Invitrogen) at 0.75 mg/ml or 0.5 mg/ml for 11-7 and Huh-luc/neo-ET cells, respectively.
# EC50 values of single agent compounds and combinations were determined by HCV RNA detection using quantitative RT-PCR, according to the manufacturer's instructions, with a TAQMAN® One-Step RT-PCR Master Mix Reagents Kit (Cat# AB 4309169, Applied Biosystems) on an ABI Model 7500 thermocycler. The TaqMan primers used for detecting and quantifying HCV RNA were obtained from Integrated DNA Technologies. HCV RNA was normalized to GAPDH RNA levels in drug-treated cells, which is detected and quantified using the Human GAPDH Endogenous Control Mix (Applied Biosystems, AB 4310884E). Total cellular RNA is purified from 96-well plates using the RNAqueous 96 kit (Ambion, Cat# AM1812). Chemical agent cytotoxicity is evaluated using an MTS assay according to the manufacturer's directions (Promega).
# The compounds of the present invention can be effective against the HCV 1b genotype. It should also be understood that the compounds of the present invention can inhibit multiple genotypes of HCV. In one embodiment compound of the present invention are active against the 1a, 1b, 2a, 2b, 3a, 4a, and 5a genotypes. […] EC50 ranges against HCV 1b are as follows: A>10 nM; B1-10 nM; C<1 nM.
row,Compound,EC50 [nM]
1,COC(=O)N[C@H](C(=O)N1CCC[C@H]1c1nc2ccc(C#Cc3ccc(-c4cnc([C@@H]5CCCN5C(=O)N(NC(=O)OC)C(C)C)[nH]4)cc3)cc2[nH]1)C(C)C [Example 369],< 1
2,COC(=O)N[C@H](C(=O)N1CCC[C@H]1c1ncc(-c2ccc3cc(-c4ccc5[nH]c(N6CCCN6C(=O)[C@@H](NC(=O)OC)C(C)C)nc5c4)ccc3c2)[nH]1)C(C)C [Example 368],< 1
3,CCN(NC(=O)OC)C(=O)N1CCC[C@H]1c1ncc(-c2ccc(-c3ccc(-c4cnc([C@@H]5CCCN5C(=O)[C@@H](NC(=O)OC)C(C)C)[nH]4)cc3)cc2)[nH]1 [Example 375],< 1
4,COC(=O)N[C@H](C(=O)N1CCC[C@H]1c1nc2ccc(C#Cc3ccc(-c4cnc([C@@H]5CCCN5C(=O)N(CC(C)C)NC(=O)OC)[nH]4)cc3)cc2[nH]1)C(C)C [Example 372],< 1
5,CCCN(NC(=O)OC)C(=O)N1CCC[C@H]1c1ncc(-c2ccc(C#Cc3ccc4nc([C@@H]5CCCN5C(=O)[C@@H](NC(=O)OC)C(C)C)[nH]c4c3)cc2)[nH]1 [Example 371],< 1
6,COC(=O)NN(C(=O)N1CCC[C@H]1c1ncc(-c2ccc(-c3ccc(-c4cnc([C@@H]5CCCN5C(=O)N(NC(=O)OC)C(C)C)[nH]4)cc3)cc2)[nH]1)C(C)C [Example 373],< 1
7,COC(=O)N[C@H](C(=O)N1CCC[C@H]1c1ncc(-c2ccc(-c3ccc(-c4cnc([C@@H]5CCCN5C(=O)N(NC(=O)OC)C(C)C)[nH]4)cc3)cc2)[nH]1)C(C)C [Example 374],< 1
8,CCN(NC(=O)OC)C(=O)N1CCC[C@H]1c1ncc(-c2ccc(C#Cc3ccc4nc([C@@H]5CCCN5C(=O)[C@@H](NC(=O)OC)C(C)C)[nH]c4c3)cc2)[nH]1 [Example 370],< 1
